Several values for one entry are separate records, joined by “and”; a condition that tells them apart may be missing. Equal entries are not always repeated.
Columns and labels:
[1] = target: T1, ZF-EGFP fusion protein with the HEIP, AEVK, WEIS, or WT ZF degron (Homo sapiens, UniProt Q9UKT9, N149E/Q147H/Q150I/S154P); test: Western blot for ZF-EGFP fusion protein; format: cell-based; details: transduced Jurkat, 18 h
T1 construct: The degron spans residues 130–189 of IKZF3; expressed in transfected cells; host or cells: Jurkat, lentivirally transduced, presorted mCherry+

[2] = target: T2, ZF-EGFP fusion protein with the HEIP, AEVK, WEIS, or WT ZF degron (Homo sapiens, UniProt Q9UKT9, N149E/Q147A/Q150V/S154K); test: Western blot for ZF-EGFP fusion protein; format: cell-based; details: transduced Jurkat, 18 h
T2 construct: The degron spans residues 130–189 of IKZF3; expressed in transfected cells; host or cells: Jurkat, lentivirally transduced, presorted mCherry+

[3] = target: APIS mutant ZF degron fused to EGFP (Homo sapiens, UniProt Q96SW2+Q9UKT9, N149P/Q147A/Q150I); test: Ratiometric EGFP:mCherry flow cytometry degradation assay, 18 h
[4] = target: WEIK mutant ZF degron fused to EGFP (Homo sapiens, UniProt Q96SW2+Q9UKT9, N149E/Q147W/Q150I/S154K); test: as above
[5] = target: T3, WEIS-EGFP degron in Jurkat cells (Homo sapiens, UniProt Q96SW2+Q9UKT9, N149E/Q147W/Q150I); test: GFP degradation flow cytometry assay with proteasome inhibitor carfilzomib; format: cell-based; details: carfilzomib (1 μM) pre-incubation; 1-24 h
T3 construct: pLVX-Sprout-IKZF3 130-189aa Q147W N149E Q150I (WEIS); expressed in transfected cells

[6] = target: T4, WEIS-EGFP in 3T3 mouse cells (UniProt Q8C7D2+Q9UKT9, N149E/Q147W/Q150I); test: EGFP/mCherry flow cytometry degradation assay in 3T3 cells; format: cell-based; details: 18 h; compared to human cells
T4 construct: IKZF3 130aa-142aa 170-189aa fused to EGFP; EGFP (fusion partner, via a linker); expressed in transfected cells; host or cells: 3T3 mouse cells, lentivirally transduced with WEIS-EGFP-IRES-mCherry (Artichoke-derived, Addgene #73320)
Method: It is also noteworthy that this system is not yet optimized for use in mouse cells, as mouse cereblon contains a key V388I mutation that prevents IMiD-induced recruitment of ZF neosubstrates. […] We anticipate that mutations could be introduced to this degron to make it mouse-compatible for future in vivo studies.
Figure S24. Dose response curve for 3T3 mouse cells lentivirally transduced with WEIS-EGFP-
IRES-mCherry incubated with a concentration curve of compound 23 (1pM – 10 μM) for 18 h and
analyzed by flow cytometry.
(1 picture or pasted object on this page, not shown here)

endogenous GSPT1 = target: T5, endogenous GSPT1 (Homo sapiens, UniProt P15170); test: Western blot for GSPT1 in WEIS-EGFP Jurkat cells; format: cell-based; details: Jurkat transduced with EGFP-WEIS, 18 h
T5 construct: endogenous in cells; host or cells: Jurkat transduced with WEIS-EGFP

[7] = test system: Jurkat cells (TRIM28-transduced and untransduced); test: CellTiter-Glo cell viability assay; format: cell-based, human; details: 100 pM – 10 μM, 24 h
Method: Figure S22. CellTiter-Glo assay to assess cell viability of Jurkat cells lentivirally transduced with TRIM28 with either N-terminal or C-terminal WEIS degron tag (or untagged control) and HiBit peptide tag, then incubated (alongside untransduced Jurkat cells) with a concentration curve of […]
(1 picture or pasted object on this page, not shown here) […]
mixed with the Cas9 RNPs and then electroporated using a 4D-Nucleofector (Lonza) on pulse code CL-120. Estimation of knockout efficiency was performed by PCR amplification of the sgRNA target site using primers described in ‘PCR primers for amplifying sgRNA target site’ below. PCR products were Sanger sequenced and editing efficiency was assessed using the online […]
HiBit and CellTiter-Glo® (CTG) Assays […]
spanning 169 pM–10 μM (final assay concentration). […]
HiBit signal was measured by adding 25 µL of the lytic detection reagent from the Nano-Glo® HiBiT Extracellular Detection System (Promega), prepared as per manufacturer protocol. […] Both assays were read using PHERAstar microplate luminescence reader (BMG Labtech). The data have been expressed as % of DMSO control and represent three independent biological replicates. […]
signal was measured by adding 40 µL of the Nano-Glo lytic detection reagent (Promega),

[8] = target: T6, ZF-EGFP fusion protein with the HEIP, AEVK, WEIS, or WT ZF degron (Homo sapiens, UniProt Q9UKT9, N149E/Q147W/Q150I); test: Western blot for ZF-EGFP fusion protein; format: cell-based; details: transduced Jurkat, 18 h
T6 construct: The degron spans residues 130–189 of IKZF3; expressed in transfected cells; host or cells: Jurkat, lentivirally transduced, presorted mCherry+

HA-HPRT1-WEIS = target: T7, HA-HPRT1-WEIS (Homo sapiens, UniProt Q96SW2+Q9UKT9, N149E/Q147W/Q150I); test: HA antibody immunoblotting in HEK293T cells; format: cell-based; details: 18 h, Western blot
T7 construct: IKZF3 130aa-142aa 170-189aa fused to EGFP; HPRT1 (protein of interest, fusion partner N-terminal of the degron); expressed in transfected cells; host or cells: HEK293T, lentivirally transduced (Cilantro2-derived plasmid, Addgene #74450, EGFP replaced by HA-POI-WEIS)

MM.1S cells = test: TMTpro quantitative proteomics, 16 h; details: 10 μM
Method: Quantitative proteomics screens were carried out in untransduced Jurkat cells, embryonic stem cells (ESCs), and the multiple myeloma cell line, MM.1S. We used Jurkat cells, as our work up to this point had employed this cell line, and we selected ESCs and MM.1S cells as they express known CRBN neosubstrates, including IKZF1, IKZF3, RAB28, RNF166, SALL4, ZFP91, and ZNF827.
Proteomics - cell lysis and protein digestion
The viability of Jurkat cells was tested after 16-h treatment with corresponding chemicals
viable cells in each condition. Next, ~10^7 cells per condition were collected by centrifugation (1000 rpm), washed twice with ice-cold PBS, and lysed in RIPA buffer [50 mM HEPES pH 7.4, 150 mM NaCl, 1% sodium deoxycholate, 1% NP-40, 0.1% SDS, 10 mM sodium pyrophosphate, 10 mM β-glycerophosphate, 2.5 mM MgCl2, 200 µM TCEP, phosphatase and protease inhibitor cocktail (in-house)], to produce whole cell extracts. Whole-cell extracts were sonicated, and protein concentrations were determined using the Bradford assay. Protein extracts (100 µg) were subjected to disulfide bond reduction with 5 mM TCEP (10 min) and alkylation with 25 mM chloroacetamide (20 min). Methanol–chloroform precipitation was performed prior to protease digestion. […]

[9] = target: WNIQ mutant ZF degron fused to EGFP (Homo sapiens, UniProt Q96SW2+Q9UKT9, Q147W/Q150I/S154Q); test: Ratiometric EGFP:mCherry flow cytometry degradation assay, 18 h
Sequence of WNIQ mutant ZF degron fused to EGFP (Q9UKT9 130-189 Q147W/Q150I/S154Q): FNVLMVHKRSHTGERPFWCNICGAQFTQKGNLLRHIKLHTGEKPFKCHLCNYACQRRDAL
Sequence of WNIQ mutant ZF degron fused to EGFP (Q96SW2 whole entry, the tested form may be a part): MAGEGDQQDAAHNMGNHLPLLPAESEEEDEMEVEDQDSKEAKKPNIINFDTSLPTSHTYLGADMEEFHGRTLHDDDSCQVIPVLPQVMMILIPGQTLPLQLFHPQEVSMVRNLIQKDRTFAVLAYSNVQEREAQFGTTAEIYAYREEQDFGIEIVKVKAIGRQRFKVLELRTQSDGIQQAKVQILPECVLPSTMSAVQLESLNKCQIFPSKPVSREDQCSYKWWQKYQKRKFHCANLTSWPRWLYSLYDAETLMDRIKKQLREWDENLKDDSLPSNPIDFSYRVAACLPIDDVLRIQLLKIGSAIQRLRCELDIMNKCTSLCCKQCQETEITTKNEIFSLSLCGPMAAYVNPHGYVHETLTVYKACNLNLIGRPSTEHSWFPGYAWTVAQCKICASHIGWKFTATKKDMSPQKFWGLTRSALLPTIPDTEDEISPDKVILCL
Sequence of WNIQ mutant ZF degron fused to EGFP (Q16531 whole entry partner, the tested form may be a part): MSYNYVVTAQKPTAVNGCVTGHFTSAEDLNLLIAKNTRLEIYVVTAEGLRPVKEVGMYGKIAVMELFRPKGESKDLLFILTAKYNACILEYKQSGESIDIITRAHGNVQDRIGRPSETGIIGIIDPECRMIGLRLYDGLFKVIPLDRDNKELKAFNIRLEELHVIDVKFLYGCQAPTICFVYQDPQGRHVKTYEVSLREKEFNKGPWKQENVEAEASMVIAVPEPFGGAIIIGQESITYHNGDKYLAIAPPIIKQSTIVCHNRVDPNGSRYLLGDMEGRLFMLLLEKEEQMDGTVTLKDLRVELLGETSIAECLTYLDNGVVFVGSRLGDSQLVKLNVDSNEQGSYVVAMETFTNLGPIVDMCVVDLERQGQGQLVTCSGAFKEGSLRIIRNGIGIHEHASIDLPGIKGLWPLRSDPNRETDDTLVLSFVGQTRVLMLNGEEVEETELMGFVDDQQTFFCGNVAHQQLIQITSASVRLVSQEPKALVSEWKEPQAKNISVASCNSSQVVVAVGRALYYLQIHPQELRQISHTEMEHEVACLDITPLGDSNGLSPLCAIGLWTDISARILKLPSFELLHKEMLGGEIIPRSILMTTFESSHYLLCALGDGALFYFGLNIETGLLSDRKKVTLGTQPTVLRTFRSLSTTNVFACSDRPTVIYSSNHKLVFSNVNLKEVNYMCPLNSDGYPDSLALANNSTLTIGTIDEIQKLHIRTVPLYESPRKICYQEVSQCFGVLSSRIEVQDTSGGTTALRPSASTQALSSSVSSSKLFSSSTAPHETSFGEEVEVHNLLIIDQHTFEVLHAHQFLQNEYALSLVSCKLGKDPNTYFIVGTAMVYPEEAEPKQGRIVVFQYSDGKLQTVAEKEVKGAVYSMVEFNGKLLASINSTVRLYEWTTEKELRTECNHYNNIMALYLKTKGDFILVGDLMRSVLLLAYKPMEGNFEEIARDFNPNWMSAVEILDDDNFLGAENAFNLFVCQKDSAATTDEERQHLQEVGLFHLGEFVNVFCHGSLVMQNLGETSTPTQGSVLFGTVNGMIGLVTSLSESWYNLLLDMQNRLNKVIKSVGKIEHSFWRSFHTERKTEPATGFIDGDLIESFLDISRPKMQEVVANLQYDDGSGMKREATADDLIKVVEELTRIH

Sequence of WEIK mutant ZF degron fused to EGFP (Q9UKT9 130-189 Q147W/N149E/Q150I/S154K): as the sequence (Q9UKT9 130-189 Q147W/Q150I/S154Q) above, with N20E, Q25K counted along it
Sequence of WEIK mutant ZF degron fused to EGFP (Q96SW2 whole entry, the tested form may be a part): as the sequence (Q96SW2 whole entry, the tested form may be a part) above
Sequence of WEIK mutant ZF degron fused to EGFP (Q16531 whole entry partner, the tested form may be a part): as the sequence (Q16531 whole entry partner, the tested form may be a part) above
Sequence of APIS mutant ZF degron fused to EGFP (Q9UKT9 130-189 Q147A/N149P/Q150I): as the sequence (Q9UKT9 130-189 Q147W/Q150I/S154Q) above, with W18A, N20P, Q25S counted along it
Sequence of APIS mutant ZF degron fused to EGFP (Q96SW2 whole entry, the tested form may be a part): as the sequence (Q96SW2 whole entry, the tested form may be a part) above
Sequence of APIS mutant ZF degron fused to EGFP (Q16531 whole entry partner, the tested form may be a part): as the sequence (Q16531 whole entry partner, the tested form may be a part) above

For `CC(C)(C)c1ccc2c(c1)C(=O)N(C1CCC(=O)NC1=O)C2=O` (stereo not shown) [Compound 19], the “degradation of EGFP tagged with HEIP degron (Western blot)” value [1] was “complete degradation”, the “degradation of EGFP tagged with AEVK degron (Western blot)” value [2] was “complete degradation” and the DC50 ([3]; APIS, Jurkat, 18 h) was 74.1 nM. For the same compound, the pDC50 ([3]; APIS, Jurkat, 18 h) was 7.13, the “Selectivity (WT/mutant)” value ([3]; DC50(WT)/DC50(APIS)) was 10.2 and 10 and the “Selectivity (WT/mutant)” value ([4]; DC50(WT)/DC50(WEIK)) was 18.1. The DC50 ([4]; WEIK, Jurkat, 18 h) was 42 nM and the pDC50 ([4]; WEIK, Jurkat, 18 h) was 7.38.

`CN1CCN(c2ccc3c(c2)C(=O)N(C2CCC(=O)NC2=O)C3=O)CC1` (stereo not shown) [Compound 23] was tested, and the “WEIS-EGFP degradation with carfilzomib” value [5] was “rescued”, the “WEIS-EGFP degradation in 3T3 mouse cells” value [6] was “modest levels of WEIS-EGFP degradation” and the “degradation of endogenous GSPT1 (Western blot)” value (endogenous GSPT1) was “showed no degradation”. For the same compound, the cell viability [7] was “did not affect the cell viability”, the “degradation of EGFP tagged with WEIS degron (Western blot)” value [8] was “complete degradation” and the D max (HA-HPRT1-WEIS) was 49%. The DC50 (HA-HPRT1-WEIS) was 67.1 nM, the “proteins degraded (quantitative proteomics)” value (MM.1S cells) was “did not significantly (Welch’s t test) induce degradation of any protein” and the “Selectivity (WT/mutant)” value ([9]; DC50(WT)/DC50(WNIQ)) was 11.8. It also gave a DC50 ([9]; WNIQ, Jurkat, 18 h) of 53.7 nM and a pDC50 ([9]; WNIQ, Jurkat, 18 h) of 7.27.

Source: PMC12645437, “Orthogonal IMiD-Degron Pairs Induce Selective Protein Degradation in Cells” (ACS Chemical Biology, 2025)
